pEC50: −log10 of the molar value. Values after ≈ are worked out from the molar mass of the structure shown. Where two headings read alike, the source gives them in different places.
What was measured:
P. aeruginosa ATCC 35151 = assay: microbe, parasite or virus in culture; type: cell-based; details: Pseudomonas aeruginosa, ATCC35151, read-out: MIC P. aeruginosa ATCC 35151
K. pneumoniae UMM = assay: microbe, parasite or virus in culture; type: cell-based; details: Klebsiella pneumoniae, read-out: MIC K. pneumoniae UMM
N. gonorrhoeae WHO L = assay: Liquid broth MIC in Fastidious broth; details: Neisseria gonorrhoeae
K. pneumoniae SI-117 = assay: microbe, parasite or virus in culture; type: cell-based; details: Klebsiella pneumoniae, SI117, read-out: MIC K. pneumoniae SI-117
E. coli AG100A = assay: Broth microdilution MIC in CAMHB; type: cell-based; details: Escherichia coli, read-out: MIC E. coli AG100A
E. coli AG100 = assay: microbe, parasite or virus in culture; type: cell-based; details: Escherichia coli, AG100, read-out: MIC E. coli AG100
E. coli D22 = assay: microbe, parasite or virus in culture; type: cell-based; details: Escherichia coli, D22, read-out: MIC E. coli D22
E. coli ATCC 25922 = assay: microbe, parasite or virus in culture; type: cell-based; details: Escherichia coli, ATCC25922, read-out: MIC E. coli 25922
E. coli 901C = assay: microbe, parasite or virus in culture; type: cell-based; details: Escherichia coli, read-out: MIC E. coli 901C
N. gonorrhoeae WHO G = assay: Liquid broth MIC in Fastidious broth; details: Neisseria gonorrhoeae
K. pneumoniae 848844 = assay: microbe, parasite or virus in culture; type: cell-based; details: Klebsiella pneumoniae, 848844, read-out: MIC K. pneumoniae 848844
N. gonorrhoeae WHO X = assay: Liquid broth MIC in Fastidious broth; details: Neisseria gonorrhoeae
A. baumannii ATCC 19606 = assay: microbe, parasite or virus in culture; type: cell-based; details: Acinetobacter baumannii, ATCC19606, read-out: MIC, A. baumannii ATCC 19606
P. aeruginosa ATCC 27853 = assay: microbe, parasite or virus in culture; type: cell-based; details: Pseudomonas aeruginosa, ATCC27853, read-out: MIC P. aeruginosa ATCC 27853
[1] = tested on: P. aeruginosa (ΔmexAB-oprM); assay: Broth microdilution MIC in CAMHB; type: cell-based; details: Pseudomonas aeruginosa; read-out: MIC P. aeruginosa ΔmexAB-oprM
[2] = molecular target: T1, PBP2 from Neisseria gonorrhoeae (FA19) (Neisseria gonorrhoeae, UniProt P08149); assay: Bocillin-FL fluorescence polarization competition binding, N. gonorrhoeae PBP2; details: fluorescence polarization competition binding assay using Bocillin-FL, read-out: N. gonorrhoeae PBP2 Potency
T1 construct: made in house
T1 sequence (P08149 whole entry): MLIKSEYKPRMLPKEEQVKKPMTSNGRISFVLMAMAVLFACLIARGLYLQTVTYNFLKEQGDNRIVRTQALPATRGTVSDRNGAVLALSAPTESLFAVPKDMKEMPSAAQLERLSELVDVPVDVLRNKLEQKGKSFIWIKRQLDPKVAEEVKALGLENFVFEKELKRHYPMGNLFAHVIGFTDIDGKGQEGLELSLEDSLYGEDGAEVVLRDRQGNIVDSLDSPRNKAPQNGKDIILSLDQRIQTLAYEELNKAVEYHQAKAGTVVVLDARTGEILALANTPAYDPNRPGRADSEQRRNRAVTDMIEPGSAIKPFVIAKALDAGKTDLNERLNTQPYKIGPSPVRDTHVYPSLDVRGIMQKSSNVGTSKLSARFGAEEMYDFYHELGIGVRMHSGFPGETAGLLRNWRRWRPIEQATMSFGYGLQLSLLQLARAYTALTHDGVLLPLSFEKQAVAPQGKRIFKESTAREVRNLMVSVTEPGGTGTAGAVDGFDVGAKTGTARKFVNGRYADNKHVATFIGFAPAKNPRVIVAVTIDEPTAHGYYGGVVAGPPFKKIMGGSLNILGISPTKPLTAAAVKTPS
Procedure, shortened: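 Fluorescence polarization competition with 0.1 μM Bocillin-FL (fluorescent penicillin V) against 0.25 μM N. gonorrhoeae FA19 PBP2 in 50 mM Hepes pH 8.0, 300 mM NaCl, 10% glycerol. Boronic acid inhibitors were preincubated with PBP, then Bocillin-FL was added and FP read (490/520 nm) up to 60 min. EC50 is the concentration halving PBP-bound Bocillin-FL.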

[3] = read-out: Minimum Inhibitory Concentration (MIC), N. gonorrhoeae WHO L
[4] = read-out: Minimum Inhibitory Concentration (MIC), N. gonorrhoeae WHO G
[5] = read-out: Minimum Inhibitory Concentration (MIC), N. gonorrhoeae WHO X
[6] = read-out: Minimum Inhibitory Concentration, WHO L
[7] = read-out: Minimum Inhibitory Concentration, WHO G
[8] = read-out: Minimum Inhibitory Concentration, WHO X

Row | SMILES | MIC (P. aeruginosa ATCC 35151) [µg/mL] | MIC (K. pneumoniae UMM) [µg/mL] | MIC (N. gonorrhoeae WHO L; [3]) [µg/mL] | MIC (K. pneumoniae SI-117) [µg/mL] | MIC (E. coli AG100A) [µg/mL] | MIC (E. coli AG100) [µg/mL] | MIC (E. coli D22) [µg/mL] | MIC (E. coli ATCC 25922) [µg/mL] | MIC (E. coli 901C) [µg/mL] | MIC (N. gonorrhoeae WHO G; [4]) [µg/mL] | MIC (K. pneumoniae 848844) [µg/mL] | MIC (N. gonorrhoeae WHO X; [5]) [µg/mL] | MIC (A. baumannii ATCC 19606) [µg/mL] | MIC (P. aeruginosa ATCC 27853) [µg/mL] | MIC [1] [µg/mL] | pEC50 [2] | MIC (N. gonorrhoeae WHO L; [6]) [µg/mL] | MIC (N. gonorrhoeae WHO G; [7]) [µg/mL] | MIC (N. gonorrhoeae WHO X; [8]) [µg/mL]
1 | CS(=O)(=O)N1CCN(C(=O)N[C@H](C(=O)N[C@H]2Cc3cccc(C(=O)O)c3OB2O)c2ccc(P(=O)(O)O)cc2)C1=O (single isomer, unassigned) [Example 5] | 8 to 16 (≈ 13.1 to 26.2 µM) | > 128 | 4 to 8 (≈ 6.55 to 13.1 µM) | > 128 | 32 to 64 (≈ 52.4 to 105 µM) | 32 to 64 (≈ 52.4 to 105 µM) | 8 to 16 (≈ 13.1 to 26.2 µM) | > 128 | < 1 | < 1 | > 128 | 4 to 8 (≈ 6.55 to 13.1 µM) | > 128 | > 128 | 32 to 64 (≈ 52.4 to 105 µM) | > 5.00 | – | – | –
2 | CS(=O)(=O)N1CCN(C(=O)N[C@@H](C(=O)N[C@H]2Cc3cccc(C(=O)O)c3OB2O)c2ccc(P(=O)(O)O)cc2)C1=O (single isomer, unassigned) [Example 6] | < 1 | 32 to 64 (≈ 52.4 to 105 µM) | < 1 | > 128 | 8 to 16 (≈ 13.1 to 26.2 µM) | 8 to 16 (≈ 13.1 to 26.2 µM) | 2 to 4 (≈ 3.28 to 6.55 µM) | 32 to 64 (≈ 52.4 to 105 µM) | < 1 | < 1 | > 128 | < 1 | 8 to 16 (≈ 13.1 to 26.2 µM) | > 128 | 8 to 16 (≈ 13.1 to 26.2 µM) | > 5.00 | – | – | –
3 | CCN1CCN(C(=O)NC(C(=O)N[C@H]2Cc3cccc(C(=O)O)c3OB2O)c2ccc(P(=O)(O)O)cc2F)C(=O)C1=O (stereo partly drawn) [Example 1, (3R)-3-(2-(4-ethyl-2,3-dioxopiperazine-1-carboxamido)-2-(2-fluoro-4-phosphonophenyl)acetamido)-2-hydroxy-3,4-dihydro-2H-benzo[e][1,2]oxaborinine-8-carboxylic acid] | < 1 | 32 to 64 (≈ 52.8 to 106 µM) | 1 to 2 (≈ 1.65 to 3.3 µM) | > 128 | 8 to 16 (≈ 13.2 to 26.4 µM) | 32 to 64 (≈ 52.8 to 106 µM) | 2 to 4 (≈ 3.3 to 6.6 µM) | > 128 | < 1 | < 1 | > 128 | 1 to 2 (≈ 1.65 to 3.3 µM) | 32 to 64 (≈ 52.8 to 106 µM) | > 128 | 32 to 64 (≈ 52.8 to 106 µM) | > 5.00 | – | – | –
4 | Cc1cc(C(=O)NCCCN2CCN(C(=O)N[C@@H](C(=O)N[C@H]3Cc4ccc(F)c(C(=O)O)c4OB3O)c3cc(F)c(O)c(O)c3Cl)C(=O)C2=O)ccn1 [Example 298, (R)-3-((R)-2-(2-chloro-5-fluoro-3,4-dihydroxyphenyl)-2-(4-(3-(2-methylisonicotinamido)propyl)-2,3-dioxopiperazine-1-carboxamido)acetamido)-7-fluoro-2-hydroxy-3,4-dihydro-2H-benzo[e][1,2]oxaborinine-8-carboxylic acid] | – | – | – | – | – | – | – | – | – | – | – | – | – | – | – | – | > 64 | 16 to 32 (≈ 21.1 to 42.2 µM) | > 64
5 | O=C(NCCCN1CCN(C(=O)N[C@H](C(=O)N[C@H]2Cc3ccc(F)c(C(=O)O)c3OB2O)c2cc(F)c(O)c(O)c2Cl)C(=O)C1=O)c1ccnc(F)c1F [Example 299, (R)-3-((S)-2-(2-chloro-5-fluoro-3,4-dihydroxyphenyl)-2-(4-(3-(2,3-difluoroisonicotinamido)propyl)-2,3-dioxopiperazine-1-carboxamido)acetamido)-7-fluoro-2-hydroxy-3,4-dihydro-2H-benzo[e][1,2]oxaborinine-8-carboxylic acid] | – | – | – | – | – | – | – | – | – | – | – | – | – | – | – | – | > 64 | > 64 | > 64
6 | O=C(NCCCN1CCN(C(=O)N[C@@H](C(=O)N[C@H]2Cc3ccc(F)c(C(=O)O)c3OB2O)c2cc(F)c(O)c(O)c2Cl)C(=O)C1=O)c1ccnc(F)c1F [Example 300, (R)-3-((R)-2-(2-chloro-5-fluoro-3,4-dihydroxyphenyl)-2-(4-(3-(2,3-difluoroisonicotinamido)propyl)-2,3-dioxopiperazine-1-carboxamido)acetamido)-7-fluoro-2-hydroxy-3,4-dihydro-2H-benzo[e][1,2]oxaborinine-8-carboxylic acid] | – | – | – | – | – | – | – | – | – | – | – | – | – | – | – | – | > 64 | 16 to 32 (≈ 20.5 to 41 µM) | > 64
